From patent publication US9340577B2, “HLA binding motifs and peptides and their uses” (priority 1992, dated 2016)
No end group written: not given here.

Key:
Assay in all cases: biochemical
DRB1*0301 = DRB1*0301 (Homo sapiens, UniProt P01903+P01911, A100K/A102G/A103R/A169T/F55Y/I96L/K41T/L162R/M171V/P40S/Q125H/Q178H/Q39Y/R42S/S66N/T106N/T262R/W38E/Y61H); type: binding
DRB1*1201 = DRB1*1201 (Homo sapiens, UniProt P01903+P01911, A100R/A169T/D57E/D86V/F55L/H45Y/K41T/L162R/M171V/P40S/Q125H/Q178H/Q39Y/Q99D/R42G/S66L/T262R/V114A/V67L/W38E/Y59H/Y61H/Y89S); type: binding
DRB3*0101 = DRB3*0101 (Homo sapiens, UniProt P01903+P79483); type: binding
DRB1*0802 = DRB1*0802 (Homo sapiens, UniProt P01903+P01911, A100R/A103L/A169T/F76Y/H45Y/I96F/K41T/L162R/M171V/P40S/Q125H/Q178H/Q39Y/Q99D/R218S/R42G/S66Y/V115G/W38E); type: binding
DRB5*0101 = DRB5*0101 (Homo sapiens, UniProt P01903+Q30154); settings: Binding affinity DRB5 *0101
DR7 (DRB1*0701) = DR7 (DRB1*0701) (Homo sapiens, UniProt P01903+P01911, A100R/A102G/A103Q/D57E/D86V/E43K/F76Y/K127E/L162R/M171V/P40G/Q125H/Q99D/R33Q/R42Y/R54Q/S133A/S66F/T210M/V115G/Y107V/Y59L/Y89S); type: binding
DRB1*1302 = DRB1*1302 (Homo sapiens, UniProt P01903+P01911, A100E/A169T/K41T/L162R/M171V/P40S/Q125H/Q178H/Q39Y/Q99D/R42S/S66N/T262R/V115G/W38E/Y61H); type: binding
Sequence of DRB1*1302 (P01903 26-254 limits assumed, other chains not shown): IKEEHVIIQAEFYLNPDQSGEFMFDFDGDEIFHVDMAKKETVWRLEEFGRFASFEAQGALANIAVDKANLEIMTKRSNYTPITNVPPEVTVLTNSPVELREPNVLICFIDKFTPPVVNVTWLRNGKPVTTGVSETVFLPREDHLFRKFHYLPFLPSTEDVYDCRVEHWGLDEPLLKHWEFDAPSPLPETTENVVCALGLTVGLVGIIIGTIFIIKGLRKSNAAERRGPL

DRB4*0101 = DRB4*0101 (Homo sapiens, UniProt P01903+P13762, G164S); type: binding
DRB1*1101 = DRB1*1101 (Homo sapiens, UniProt P01903+P01911, A100R/A169T/A87E/I96F/K41T/L162R/M171V/P40S/Q125H/Q178H/Q39Y/Q99D/R42S/S66Y/T262R/V115G/W38E); settings: Binding affinity DRB1 *1101
Sequence of DRB1*1101 (P01903 26-254 limits assumed, other chains not shown): as above

DRB1*0901 = DRB1*0901 (Homo sapiens, UniProt P01903+P01911, A100R/A103E/D57H/D86V/F55Y/F60I/F76Y/I96F/K127E/L162R/M171V/P40D/Q125H/Q99R/R33Q/R42F/S133A/S66N/T210M/V115G/W38K/Y107V/Y59G/Y89S); type: binding
DR4w4 (DRB1*0401) = DR4w4 (DRB1*0401) (Homo sapiens, UniProt P01903+P01911, A100K/A169T/F76Y/I96L/K127E/L162R/M171V/N62H/P40V/Q125Y/R42H/S133A/S149N/S66Y/V115G/V209L/W38E); type: binding
DR1 (DRB1*0101) = DR1 (DRB1*0101) (Homo sapiens, UniProt P01903+P01911, A100R/D57E/F55L/F60I/F76Y/I96L/L162R/M171V/P40L/Q125E/R42F/V115G/Y59C); type: binding
DRB1*1501 = DRB1*1501 (Homo sapiens, UniProt P01903+P01911); type: binding
DRB1*0405 = DRB1*0405 (Homo sapiens, UniProt P01903+P01911, A100R/A169T/D86S/F76Y/I96L/K127E/L162R/M171V/N62H/P40V/Q125Y/R42H/S133A/S149N/S66Y/V115G/V209L/W38E); type: binding

Sequence of DRB1*0301 (P01903 26-254 limits assumed, other chains not shown): as above

Compound | IC50 (DRB1*0301) [µM] | IC50 (DRB1*1201) [µM] | IC50 (DRB3*0101) [µM] | IC50 (DRB1*0802) [µM] | IC50 (DRB5*0101) [µM] | IC50 (DR7 (DRB1*0701)) [µM] | IC50 (DRB1*1302) [µM] | IC50 (DRB4*0101) [µM] | IC50 (DRB1*1101) [µM] | IC50 (DRB1*0901) [µM] | IC50 (DR4w4 (DRB1*0401)) [µM] | IC50 (DR1 (DRB1*0101)) [µM] | IC50 (DRB1*1501) [µM] | IC50 (DRB1*0405) [µM]
CC[C@H](C)[C@H](NC(=O)[C@@H]1CCCN1C(=O)[C@H](CC(N)=O)NC(=O)[C@@H](N)Cc1c[nH]c2ccccc12)C(=O)N[C@@H](CC(C)C)C(=O)N[C@@H](CC(C)C)C(=O)N[C@@H](Cc1c[nH]c2ccccc12)C(=O)N[C@@H](CCC(N)=O)C(=O)N1CCC[C@H]1C(=O)N[C@H](C(=O)N1CCC[C@H]1C(=O)N[C@H](C(=O)N[C@@H](Cc1c[nH]cn1)C(=O)N[C@H](C(=O)N[C@H](C(=O)O)C(C)C)[C@@H](C)O)C(C)C)[C@@H](C)CC [Peptide 68.0035] | > 20 | 5.69 | > 20 | > 20 | – | – | – | – | – | – | – | – | – | –
CC[C@H](C)[C@H](NC(=O)[C@@H]1CCCN1C(=O)[C@@H](N)CC(N)=O)C(=O)N[C@@H](CC(C)C)C(=O)N[C@@H](CC(C)C)C(=O)N[C@@H](Cc1c[nH]c2ccccc12)C(=O)N[C@@H](CCC(N)=O)C(=O)N1CCC[C@H]1C(=O)N[C@H](C(=O)N1CCC[C@H]1C(=O)N[C@H](C(=O)N[C@@H](Cc1c[nH]cn1)C(=O)N[C@H](C(=O)N[C@H](C(=O)N1CCC[C@H]1C(=O)O)C(C)C)[C@@H](C)O)C(C)C)[C@@H](C)CC [Peptide 68.0036] | > 20 | 0.612 | > 20 | – | > 20 | – | – | – | – | – | – | – | – | –
CC[C@H](C)[C@H](NC(=O)[C@@H]1CCCN1)C(=O)N[C@@H](CC(C)C)C(=O)N[C@@H](CC(C)C)C(=O)N[C@@H](Cc1c[nH]c2ccccc12)C(=O)N[C@@H](CCC(N)=O)C(=O)N1CCC[C@H]1C(=O)N[C@H](C(=O)N1CCC[C@H]1C(=O)N[C@H](C(=O)N[C@@H](Cc1c[nH]cn1)C(=O)N[C@H](C(=O)N[C@H](C(=O)N1CCC[C@H]1C(=O)N[C@@H](CC(C)C)C(=O)O)C(C)C)[C@@H](C)O)C(C)C)[C@@H](C)CC [Peptide 68.0037] | > 20 | 2.37 | > 20 | > 20 | > 20 | – | – | – | – | – | – | – | – | –
CC[C@H](C)[C@H](NC(=O)CNC(=O)[C@H](Cc1ccc(O)cc1)NC(=O)[C@H](CC(C)C)NC(=O)[C@H](CO)NC(=O)[C@H](CC(C)C)NC(=O)[C@H](CC(C)C)NC(=O)[C@H](CO)NC(=O)[C@@H](N)CC(C)C)C(=O)N[C@@H](Cc1c[nH]cn1)C(=O)N[C@@H](CCCCN)C(=O)N[C@@H](CCC(N)=O)C(=O)N[C@@H](CCCCN)C(=O)N[C@@H](CCC(=O)O)C(=O)N[C@@H](CCCCN)C(=O)O [Peptide 68.0045] | > 20 | 0.647 | > 20 | – | – | > 20 | > 20 | – | – | – | – | – | – | –
CSCC[C@H](NC(=O)[C@H](CC(=O)O)NC(=O)[C@H](Cc1ccc(O)cc1)NC(=O)[C@H](CC(C)C)NC(=O)[C@@H]1CCCN1C(=O)[C@H](Cc1c[nH]cn1)NC(=O)[C@@H]1CCCN1C(=O)[C@H](Cc1ccccc1)NC(=O)[C@H](CO)NC(=O)[C@H](Cc1c[nH]cn1)NC(=O)[C@H](CO)NC(=O)[C@@H](NC(=O)[C@H](CCC(N)=O)NC(=O)[C@H](Cc1ccccc1)NC(=O)[C@@H](N)C(C)C)C(C)C)C(=O)O [Peptide 68.0070] | > 20 | 2.48 | > 20 | – | – | – | – | > 20 | – | – | – | – | – | –
CC[C@H](C)[C@H](NC(=O)[C@@H](NC(=O)[C@@H]1CCCN1C(=O)CN)C(C)C)C(=O)N1CCC[C@H]1C(=O)N[C@@H](CCC(N)=O)C(=O)N[C@@H](CC(=O)O)C(=O)N[C@@H](Cc1c[nH]c2ccccc12)C(=O)N[C@@H](CO)C(=O)N[C@H](C(=O)N[C@@H](CCC(=O)O)C(=O)N[C@@H](CS)C(=O)N[C@@H](CCSC)C(=O)N[C@H](C(=O)N[C@H](C(=O)O)[C@@H](C)O)[C@@H](C)O)[C@@H](C)O [Peptide 68.0156] | > 20 | > 20 | > 20 | – | – | – | – | – | – | – | – | – | – | –
CC(C)C[C@H](NC(=O)[C@H](CC(=O)O)NC(=O)[C@@H](NC(=O)[C@@H](NC(=O)[C@H](CCC(=O)O)NC(=O)[C@@H]1CCCN1C(=O)[C@H](CCC(N)=O)NC(=O)[C@H](CC(C)C)NC(=O)[C@H](CC(=O)O)NC(=O)[C@@H](N)CC(C)C)[C@@H](C)O)[C@@H](C)O)C(=O)N[C@@H](Cc1ccc(O)cc1)C(=O)N[C@@H](CS)C(=O)N[C@@H](Cc1ccc(O)cc1)C(=O)N[C@@H](CCC(=O)O)C(=O)N[C@@H](CCC(N)=O)C(=O)O [Peptide 1543.04] | 0.59 | > 20 | > 20 | > 20 | > 20 | > 20 | > 20 | – | > 20 | > 20 | 1.9 | > 20 | > 20 | > 20
CC[C@H](C)[C@H](NC(=O)[C@H](CC(=O)O)NC(=O)[C@H](Cc1c[nH]cn1)NC(=O)[C@@H](NC(=O)[C@@H](NC(=O)[C@@H](NC(=O)[C@H](CCC(N)=O)NC(=O)[C@H](CC(C)C)NC(=O)[C@H](CCC(=O)O)NC(=O)[C@@H](NC(=O)[C@H](CS)NC(=O)[C@@H](N)CC(C)C)[C@@H](C)O)[C@@H](C)O)[C@@H](C)O)[C@@H](C)CC)C(=O)N[C@H](C(=O)N[C@@H](CC(C)C)C(=O)N[C@@H](CCC(=O)O)C(=O)O)[C@@H](C)CC [Peptide 1543.24] | 0.08 | > 20 | > 20 | > 20 | > 20 | – | – | – | > 20 | > 20 | – | – | > 20 | –
EVFFQRLGIASGRAR [Peptide 68.0115] | > 20 | 2.94 | > 20 | – | – | – | – | – | – | – | – | – | – | –
EYVLDLYPEPTDLYC [Peptide 1543.12] | 0.76 | 2.21 | 0.734 | > 20 | > 20 | > 20 | > 20 | 0.159 | > 20 | > 20 | – | 9.08 | 13 | 5.88
NGVLQGITSWGPEPC [Peptide 68.0017] | 8.43 | > 20 | > 20 | > 20 | > 20 | – | > 20 | – | > 20 | > 20 | – | – | – | –
PDGQAEQATSNYYIV [Peptide 1543.43] | > 20 | > 20 | > 20 | > 20 | > 20 | 0.051 | > 20 | > 20 | – | 2.33 | – | > 20 | > 20 | 5.12
RFHNIMGRWTGRCSE [Peptide 1543.60] | 5.48 | 18.3 | 7.84 | 0.027 | 0.374 | – | – | 1.12 | 0.024 | 8.86 | 0.332 | 0.0056 | 0.123 | 1.84
RREVYDFAFRDLCIV [Peptide 1543.25] | 11 | 11 | > 20 | 9.03 | 19.8 | 0.073 | > 20 | 2.46 | > 20 | > 20 | 4.03 | > 20 | > 20 | –
TRPRTLHELCEVLEE [Peptide 1543.42] | > 20 | > 20 | > 20 | > 20 | > 20 | > 20 | > 20 | 2.59 | > 20 | > 20 | – | 18 | > 20 | 0.674
